# ChEMBL document CHEMBL1146600, “Preparation of 7-substituted ginkgolide derivatives: potent platelet activating factor (PAF) receptor antagonists” (J Med Chem, 2003)
# Target: Platelet-activating factor receptor (Cavia porcellus, UniProt P21556)
# Assay: Displacement of [3H]-WEB 2086 from Platelet activating factor receptor (guinea pig) transgenic mouse muscle membrane
# Sequence of Platelet-activating factor receptor (P21556 whole entry): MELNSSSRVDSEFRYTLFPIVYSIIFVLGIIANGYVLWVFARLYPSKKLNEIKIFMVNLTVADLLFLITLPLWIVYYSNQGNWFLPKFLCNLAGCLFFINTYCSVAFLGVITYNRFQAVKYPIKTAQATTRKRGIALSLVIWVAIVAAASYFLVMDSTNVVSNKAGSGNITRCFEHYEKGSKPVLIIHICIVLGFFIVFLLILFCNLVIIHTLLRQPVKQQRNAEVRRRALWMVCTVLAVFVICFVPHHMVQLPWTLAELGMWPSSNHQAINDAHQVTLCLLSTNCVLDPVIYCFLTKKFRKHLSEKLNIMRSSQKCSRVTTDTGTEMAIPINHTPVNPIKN
row,Structure (SMILES),Ki
1,C[C@@H]1C(=O)OC2[C@H](O)C34C5OC(=O)C3(OC3OC(=O)[C@H](OCc6ccccc6)C34[C@@H](C(C)(C)C)[C@@H]5O)[C@]21O (some centres undefined),1670 nM
2,"C[C@@H]1C(=O)O[C@H]2[C@H](O)[C@@]34[C@H]5CC(C(C)(C)C)[C@]36[C@@H](OC(=O)[C@@H]6O)O[C@@]4(C(=O)O5)[C@@]12O (single isomer, unassigned) [GINKOLIDE B]",880 nM
3,C[C@@H]1C(=O)OC2[C@H](O)C34C5OC(=O)C3(OC3OC(=O)[C@H](OCc6ccccc6)C34[C@@H](C(C)(C)C)[C@H]5F)[C@]21O (some centres undefined),100 nM
4,CN[C@H]1C2OC(=O)C34OC5OC(=O)[C@H](O)C5([C@H]1C(C)(C)C)C23[C@@H](O)C1OC(=O)[C@@H](C)[C@@]14O (some centres undefined),610 nM
5,C[C@@H]1C(=O)OC2[C@H](O)C34C5OC(=O)C3(OC3OC(=O)[C@H](OCc6ccccc6)C34[C@@H](C(C)(C)C)[C@H]5O)[C@]21O (some centres undefined),600 nM
6,C[C@@H]1C(=O)OC2[C@H](O)C34C5OC(=O)C3(OC3OC(=O)[C@H](O)C34[C@@H](C(C)(C)C)[C@H]5F)[C@]21O (some centres undefined),990 nM
7,CCN[C@H]1C2OC(=O)C34OC5OC(=O)[C@H](O)C5([C@H]1C(C)(C)C)C23[C@@H](O)C1OC(=O)[C@@H](C)[C@@]14O (some centres undefined),1620 nM
8,C[C@@H]1C(=O)OC2[C@H](O)C34C5C[C@H](C(C)(C)C)C36C(OC(=O)[C@@H]6OCc3ccccc3)OC4(C(=O)O5)[C@]21O (some centres undefined),120 nM
9,C[C@@H]1C(=O)OC2[C@H](O)C34C5OC(=O)C3(OC3OC(=O)[C@H](O)C34[C@@H](C(C)(C)C)[C@H]5Cl)[C@]21O (some centres undefined),110 nM
10,"C[C@@H]1C(=O)O[C@H]2[C@H](O)[C@]34[C@@H]5OC(=O)[C@]3(OC3OC(=O)[C@H](O)C34C(C(C)(C)C)[C@H]5O)[C@@]12O (single isomer, unassigned)",4260 nM
11,C[C@@H]1C(=O)OC2[C@H](O)C34C5OC(=O)C3(OC3OC(=O)[C@H](O)C34[C@@H](C(C)(C)C)[C@H]5N)[C@]21O (some centres undefined),8640 nM
12,C[C@@H]1C(=O)OC2[C@H](O)C34C5OC(=O)C3(OC3OC(=O)[C@H](O)C34[C@@H](C(C)(C)C)[C@H]5N=[N+]=[N-])[C@]21O (some centres undefined),550 nM
13,"C[C@@H]1C(=O)O[C@H]2[C@H](O)[C@]34[C@@H]5OC(=O)[C@]3(OC3OC(=O)[C@H](O)C34C(C(C)(C)C)[C@@H]5O)[C@@]12O (single isomer, unassigned)",12600 nM
14,CC(=O)O[C@H]1C2OC(=O)C34OC5OC(=O)[C@H](O)C5([C@H]1C(C)(C)C)C23[C@@H](O)C1OC(=O)[C@@H](C)[C@@]14O (some centres undefined),7840 nM
